Reference: patent US8338582B2, “Anti-HIV immunogens and methods for inducing an immune response” (Fundacao de Amparo a Pesquisa do Estado de Sao Paulo, priority 2005, dated 2012)
Where two headings read alike, the source gives them in different places.

Legend:
[1] = test system: peripheral blood mononuclear cells from HIV-1 seronegative individuals; conditions: for IFN-γ spots/10^6 PBMC, Average (AV): average of 8 seronegative individuals; for IFN-γ spots/10^6 PBMC, Average (AV) / IFN-γ spots/10^6 PBMC: peptide 5 μM; for IFN-γ spots/10^6 PBMC, AV + 3SD: average plus 3 standard deviations, 8 seronegative individuals
Experimental: (§1) Step d) is achieved by synthesizing the peptides representing the epitopes of the present invention, followed by ELISPOT assay to detect IFN-γ-producing cells. For the purposes of the present invention, the positivity cutoff value used is ≧30 SFC IFN-γ/10^6 PBMC, calculated based on the levels of responses of HIV-1 seronegative patients
(§2) Synthetic peptide stocks were diluted to 25 mg/mL in dimethylsulphoxide, followed by ELISPOT assays for detection of IFN-γ-producing cells in response to the epitopes using peripheral blood mononuclear cells (PBMC) in 34 HIV-1+ patients of several clinical groups, long-term nonprogressors (LTNP), reconsituted, partial controllers, and progressors. Each epitope was tested in a concentration of 5 μM. The cryopreserved cells were maintained in culture for 16 hours, placed on plates in the presence of the epitopes, incubated for a further 18 hours, washed and ELISPOT plates were developed for the identification of spot-forming cells/Interferon-γ-producing cells (IFN-γ SFC), which were then counted in an automated counter (Zeiss KS ELISpot/Axioplan 2).

[2] = test system: peripheral blood mononuclear cells (PBMC) in 34 HIV-1+ patients; conditions: 5 μM, positive ≧30 SFC IFN-γ/10^6 PBMC
Experimental: as §1, §2

Sequence | IFN-γ spots/10^6 PBMC, Average (AV) [1] [spots/10^6 PBMC] | IFN-γ spots/10^6 PBMC, AV + 3SD [1] [spots/10^6 PBMC] | IFN-γ spots/10^6 PBMC ([1]; seronegative individual C#01) [spots/10^6 PBMC] | IFN-γ spots/10^6 PBMC ([1]; seronegative individual C#02) [spots/10^6 PBMC] | IFN-γ spots/10^6 PBMC ([1]; seronegative individual C#03) [spots/10^6 PBMC] | IFN-γ spots/10^6 PBMC ([1]; seronegative individual C#04) [spots/10^6 PBMC] | IFN-γ spots/10^6 PBMC ([1]; seronegative individual C#05) [spots/10^6 PBMC] | IFN-γ spots/10^6 PBMC ([1]; seronegative individual C#06) [spots/10^6 PBMC] | IFN-γ spots/10^6 PBMC ([1]; seronegative individual C#07) [spots/10^6 PBMC] | IFN-γ spots/10^6 PBMC ([1]; seronegative individual C#08) [spots/10^6 PBMC] | percentage of HIV-1+ patients recognizing the individual peptide [2] [%]
EELRSLYNTVATLYCVH [gag 1] | 1.7 | 10.0 | 0 | 7 | 0 | 2 | 0 | 0 | 0 | 5 | 
TMLLGMLMICSAA [env 2] | 3.4 | 19.7 | 0 | 7 | 5 | 0 | 0 | 0 | 0 | 15 | 
ALFYKLDVVPID [env 3] | 1.5 | 10 | 5 | 0 | 0 | 7 | 0 | 0 | 0 | 0 | 
QRPLVTIKIGGQLKE [pol 1] | 5.1 | 26.9 | 0 | 0 | 20 | 12 | 3 | 0 | 1 | 5 | 44
DKELYPLASLRSLFG [gag 4] | 3.7 | 17.4 | 0 | 0 | 5 | 12 | 8 | 0 | 0 | 5 | 
SLQYLALVALVAPKK [vif 2] | 3.1 | 19.7 | 0 | 8 | 2 | 0 | 0 | 0 | 0 | 15 | 
KRWIILGLNKIVRMYSPTSI [gag 3] | 3.6 | 20 | 0 | 12 | 5 | 12 | 0 | 0 | 0 | 0 | 
VLEWRFDSRLAFHHV [nef 1] | 4.4 | 17.7 | 0 | 3 | 7 | 12 | 8 | 0 | 0 | 5 | 
SELYLYKVVKIEPLGVAP [env 5] | 0.6 | 5.9 | 0 | 0 | 5 | 0 | 0 | 0 | 0 | 0 | 
VLAIVALVVATIIAI [vpu 1] | 3.7 | 16.2 | 0 | 0 | 7 | 7 | 0 | 0 | 6 | 10 | 
GKIILVAVHVASGYI [pol 3] | 0.2 | 2.4 | 0 | 2 | 0 | 0 | 0 | 0 | 0 | 0 | 
NTSYRLISCNTSVI [env 4] | 5.2 | 24.6 | 0 | 7 | 15 | 2 | 3 | 0 | 0 | 15 | 
QQLLFIHFRIGCRHSRIG [vpr 3] | 1.9 | 12.3 | 0 | 8 | 7 | 0 | 0 | 0 | 0 | 0 | 
SPEVIPMFSALSE [gag 2] | 0.9 | 6.3 | 0 | 2 | 0 | 0 | 0 | 0 | 0 | 5 | 
EAIIRILQQLLFIHF [vpr 2] | 4.6 | 24.2 | 0 | 12 | 15 | 0 | 0 | 0 | 0 | 10 | 
ELLKTVRLIKFLYQSNP [rev 1] | 3 | 12.9 | 5 | 7 | 5 | 7 | 0 | 0 | 0 | 0 | 
